Here are results for 23 compounds from US11053225B2, “Pyrimidine derivative compound, optical isomer thereof, or pharmaceutically acceptable salt thereof, and composition for preventing or treating Tyro 3 related disease comprising same as active ingredient” (KOREA RESEARCH INSTITUTE OF CHEMICAL TECHNOLOGY, priority 2017, dated 2021).

Where only a bound is given, the exact number is not on record here.

The assay deals with Axl (Homo sapiens (Human), UniProt P30530). Kind of assay: Axl kinase inhibition assay (Cisbio method, Eu-labeled antibody to phosphorylated peptide). The settings on record: read-out: IC50 (μM) Axl; 1 hour reaction with substrate peptide and ATP.
Axl, sequence (P30530 26-894): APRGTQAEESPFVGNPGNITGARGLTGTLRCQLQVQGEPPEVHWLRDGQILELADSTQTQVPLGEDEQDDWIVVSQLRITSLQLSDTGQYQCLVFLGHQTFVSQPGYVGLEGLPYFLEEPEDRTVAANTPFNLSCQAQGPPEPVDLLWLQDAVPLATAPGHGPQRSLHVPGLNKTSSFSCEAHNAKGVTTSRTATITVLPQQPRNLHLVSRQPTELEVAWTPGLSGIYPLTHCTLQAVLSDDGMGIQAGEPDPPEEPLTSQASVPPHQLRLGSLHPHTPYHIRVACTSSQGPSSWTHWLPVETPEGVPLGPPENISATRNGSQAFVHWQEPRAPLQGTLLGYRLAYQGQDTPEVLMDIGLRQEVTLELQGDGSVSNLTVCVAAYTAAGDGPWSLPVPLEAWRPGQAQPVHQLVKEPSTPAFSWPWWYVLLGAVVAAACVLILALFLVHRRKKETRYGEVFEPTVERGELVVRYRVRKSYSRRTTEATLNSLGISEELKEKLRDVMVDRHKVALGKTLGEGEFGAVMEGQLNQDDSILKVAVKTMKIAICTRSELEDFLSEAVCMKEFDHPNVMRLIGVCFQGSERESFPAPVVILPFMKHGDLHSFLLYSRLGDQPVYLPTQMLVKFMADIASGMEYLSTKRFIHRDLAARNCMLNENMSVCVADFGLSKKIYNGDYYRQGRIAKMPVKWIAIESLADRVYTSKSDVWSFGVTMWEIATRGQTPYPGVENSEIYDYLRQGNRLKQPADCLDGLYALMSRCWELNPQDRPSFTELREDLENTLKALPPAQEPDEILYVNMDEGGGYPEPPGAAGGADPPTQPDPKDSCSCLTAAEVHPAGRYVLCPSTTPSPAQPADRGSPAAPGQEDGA
Description: For evaluation of inhibitory activities of the compounds according to the present invention on Tyro 3, Axl, and Mer, the following test was carried out.
The specific test method followed the method provided by Cisbio. The compounds of the examples were prepared at various concentrations, followed by addition of Tyro 3, Axl, or Mer and substrate peptides, and then ATP was added to initiate a reaction. After 1 hour, the reaction was stopped by addition of a solution containing EDTA. Thereafter, the amount of phosphorylated peptides was measured. Here, the phosphorylated peptides were treated with an europium (Eu)-labeled antibody recognizing phosphorylated peptides, and then after 1 hour, excited by irradiation of the light of a wavelength of 320 or 340 nm using an Envision Reader.
The term IC50 denotes the concentration needed to halve the response being measured. On to `Cc1ccc(Nc2ncc(-c3ccc(C)cc3)c(NC3CCCCC3)n2)cc1` [Compound 2, N4-cyclohexyl-N2,5-di-(p-tolyl)pyrimidine-2,4-diamine], for which the IC50 is greater than 10 µM.

For `Cc1ccc(Nc2ncc(-c3ccoc3)c(NC3CCN(C(=O)C(F)(F)F)CC3)n2)cc1` [Compound 49, 1-(4-(2-(p-toluidino)-5-(furan-3-yl)pyrimidin-4-ylamino)piperidin-1-yl)-2,2,2-trifluoroethanone], the IC50 is greater than 10 µM.

In the case of `Cc1ccc(Nc2ncc(-c3ccoc3)c(NC3CCCCC3)n2)cc1` [Compound 14, N4-cyclohexyl-5-(furan-3-yl)-N2-(p-tolyl)pyrimidine-2,4-diamine], the IC50 is greater than 10 µM.

Regarding `COc1ccccc1Nc1ncc(-c2ccc(OC)c(OC)c2)c(NC2CCNCC2)n1` [Compound 68, 5-(3,4-dimethoxyphenyl)-N2-(2-methoxyphenyl)-N4-(piperidin-4-yl)pyrimidine-2,4-diamine], the IC50 was greater than 10 µM.

On to `COc1ccc(Nc2ncc(-c3cnn(C)c3)c(NC3CCN(C(=O)C(F)(F)F)CC3)n2)cc1` [Compound 44, 1-(4-(2-(4-methoxyphenylamino)-5-(1-methyl-1H-pyrazol-4-yl)pyrimidin-4-ylamino)piperidin-1-yl)-2,2,2-trifluoroethanone], for which the IC50 is greater than 10 µM.

As to `Cn1cc(-c2cnc(Nc3ccc4c(c3)CN(C(=O)C(F)(F)F)CC4)nc2N[C@H]2CC[C@@H](NC(=O)C(F)(F)F)CC2)cn1` [Compound 86, N-((1s,4s)-4-(5-(1-methyl-1H-pyrazol-4-yl)-2-(2-(2,2,2-trifluoroacetyl)-1,2,3,4-tetrahydroisoquinolin-7-ylamino)pyrimidin-4-ylamino)cyclohexyl)-2,2,2-trifluoroacetamide], the IC50 was greater than 10 µM.

On to `Cn1cc(-c2cnc(Nc3ccc4c(c3)CNCC4)nc2N[C@H]2CC[C@@H](N)CC2)cn1` [Compound 88, N4-((1s,4s)-4-aminocyclohexyl)-5-(1-methyl-1H-pyrazol-4-yl)-N2-(1,2,3,4-tetrahydroisoquinolin-7-yl)pyrimidin-2,4-diamine], for which the IC50 was greater than 10 µM.

With `COc1ccc(Nc2ncc(-c3cnn(C)c3)c(NC3CCNCC3)n2)cc1` [Compound 47, N2-(4-methoxyphenyl)-5-(1-methyl-1H-pyrazol-4-yl)-N4-(piperidin-4-yl)pyrimidine-2,4-diamine], the IC50 is greater than 10 µM.

For the compound `COc1ccc(Nc2ncc(-c3ccc(OC)c(OC)c3)c(NC3CCN(C(=O)C(F)(F)F)CC3)n2)cc1` [Compound 64, 1-(4-(5-(3,4-dimethoxyphenyl)-2-(4-methoxyphenylamino)pyrimidin-4-ylamino)piperidin-1-yl)-2,2,2-trifluoroethanone], the IC50 is greater than 10 µM.

For the compound `Cc1cccc(Nc2ncc(-c3ccoc3)c(NC3CCN(C(=O)C(F)(F)F)CC3)n2)c1` [Compound 50, 1-(4-(2-(m-toluidino)-5-(furan-3-yl)pyrimidin-4-ylamino)piperidin-1-yl)-2,2,2-trifluoroethanone], the IC50 was greater than 10 µM.

`Cc1cc(Nc2ncc(-c3cnn(C)c3)c(NC3CCN(C(=O)C(F)(F)F)CC3)n2)ccc1Cl` [Compound 43, 1-(4-(2-(3-methyl-4-chlorophenylamino)-5-(1-methyl-1H-pyrazol-4-yl)pyrimidin-4-ylamino)piperidin-1-yl)-2,2,2-trifluoroethanone]: the IC50 was greater than 10 µM.

In the case of `Cn1cc(-c2cnc(NCCc3ccncc3)nc2NC2CCCCC2)cn1` [Compound 17], the IC50 is greater than 10 µM.

Regarding `O=C(N1CCc2ccc(Nc3nc(Nc4cccc(Cl)c4Cl)ncc3-c3cnn(CCO)c3)cc2C1)C(F)(F)F` [Compound 125, 1-(7-(2-(2,3-dichlorophenylamino)-5-(1-(2-hydroxyethyl)-1H-pyrazol-4-yl)pyrimidin-4-ylamino)-3,4-dihydroisoquinolin-2(1H)-yl)-2,2,2-trifluoroethanone], the IC50 was greater than 10 µM.

Consider `COc1ccc(Nc2ncc(-c3cnn(C)c3)c(NC3CCCCC3)n2)cc1Cl` [Compound 9, N2-(3-chloro-4-methoxyphenyl)-N4-cyclohexyl-5-(1-methyl-1H-pyrazol-4-yl)pyrimidine-2,4-diamine], for which the 50% inhibitory concentration (IC50) is greater than 10 µM.

With `O=C(N1CCc2ccc(Nc3nc(Nc4cc(C(F)(F)F)cc(C(F)(F)F)c4)ncc3-c3cnn(CCO)c3)cc2C1)C(F)(F)F` [Compound 124, 1-(7-(2-(3,5-bis(trifluoromethyl)phenylamino)-5-(1-(2-hydroxyethyl)-1H-pyrazol-4-yl)pyrimidin-4-ylamino)-3,4-dihydroisoquinolin-2(1H)-yl)-2,2,2-trifluoroethanone], the IC50 is greater than 10 µM.

Turning to `O=C(NC1CCC(Nc2nc(Nc3cc(Cl)cc(Cl)c3)ncc2-c2cnn(C3CCNCC3)c2)CC1)C(F)(F)F` (centres unmarked) [Compound 122, 1-(4-(2-(3,5-dichlorophenylamino)-5-(1-(piperidin-4-yl)-1H-pyrazol-4-yl)pyrimidin-4-ylamino)cyclohexyl)-2,2,2-trifluoroacetamide], the IC50 was greater than 10 µM.

`COc1ccc(-c2cnc(Nc3cccc(Cl)c3)nc2NC2CCN(C(=O)C(F)(F)F)CC2)cc1OC` [Compound 69, 1-(4-(2-(3-chlorophenylamino)-5-(3,4-dimethoxyphenyl)pyrimidin-4-ylamino)piperidin-1-yl)-2,2,2-trifluoroethanone]: the IC50 is greater than 10 µM.

In the case of `Cn1cc(-c2cnc(Nc3cc(C(F)(F)F)cc(C(F)(F)F)c3)nc2Nc2ccc3c(c2)CNCC3)cn1` [Compound 136, N2-(3,5-bis(trifluoromethyl)phenyl)-5-(1-methyl-1H-pyrazol-4-yl)-N4-(1,2,3,4-tetrahydroisoquinolin-7-yl)pyrimidine-2,4-diamine], the IC50 is greater than 10 µM.

`Clc1cc(Cl)cc(Nc2ncc(-c3ccoc3)c(NC3CCCCC3)n2)c1` [Compound 15, N4-cyclohexyl-N2-(3,5-dichlorophenyl)-5-(furan-3-yl)pyrimidine-2,4-diamine]: the IC50 is greater than 10 µM.

Turning to `Cn1cc(-c2cnc(Nc3ccccc3)nc2NC2CCCCC2)cn1` [Compound 6, N4-cyclohexyl-5-(1-methyl-1H-pyrazol-4-yl)-N2-phenylpyrimidine-2,4-diamine], the IC50 was greater than 10 µM.

With `Cn1cc(-c2cnc(NC34CC5CC(CC(C5)C3)C4)nc2NC2CCCCC2)cn1` [Compound 23, N4-cyclohexyl-N2-adamantyl-5-(1-methyl-1H-pyrazol-4-yl)pyrimidine-2,4-diamine], the IC50 is greater than 10 µM.

For `COc1cc(Nc2ncc(-c3cnn(C)c3)c(Nc3ccc4c(c3)CN(C(=O)C(F)(F)F)CC4)n2)cc(OC)c1` [Compound 138, 1-(7-(2-(3,5-dimethoxyphenylamino)-5-(1-methyl-1H-pyrazol-4-yl)pyrimidin-4-ylamino)-3,4-dihydroisoquinolin-2(1H)-yl)-2,2,2-trifluoroethan-1-one], the IC50 is greater than 10 µM.

For `Cn1cc(-c2cnc(Nc3ccc4c(c3)CN(C(=O)C(F)(F)F)CC4)nc2NC2CCN(C(=O)C(F)(F)F)CC2)cn1` [Compound 70, 1-(4-(5-(1-methyl-1H-pyrazol-4-yl)-2-(2-(2,2,2-trifluoroacetyl)-1,2,3,4-tetrahydroisoquinolin-7-ylamino)pyrimidin-4-ylamino)piperidin-1-yl)-2,2,2-trifluoroethanone], the IC50 is greater than 10 µM.
